Where a name gives a salt, the structure may show the parent alone.
Molecular target: h12/15-LOX (Homo sapiens (Human), UniProt P16050)
Assay: 12/15-LOX enzyme inhibition IC50 assay (Examples 1 and 2)
Assay type: biochemical
Details: for Emax: h12/15-LOX, read-out: Max % inhibition
Experimental: Enzyme was then added to the cuvettes. […] The % inhibition for each test compound concentration were calculated as follows: […]

Chain of h12/15-LOX (P16050 whole entry): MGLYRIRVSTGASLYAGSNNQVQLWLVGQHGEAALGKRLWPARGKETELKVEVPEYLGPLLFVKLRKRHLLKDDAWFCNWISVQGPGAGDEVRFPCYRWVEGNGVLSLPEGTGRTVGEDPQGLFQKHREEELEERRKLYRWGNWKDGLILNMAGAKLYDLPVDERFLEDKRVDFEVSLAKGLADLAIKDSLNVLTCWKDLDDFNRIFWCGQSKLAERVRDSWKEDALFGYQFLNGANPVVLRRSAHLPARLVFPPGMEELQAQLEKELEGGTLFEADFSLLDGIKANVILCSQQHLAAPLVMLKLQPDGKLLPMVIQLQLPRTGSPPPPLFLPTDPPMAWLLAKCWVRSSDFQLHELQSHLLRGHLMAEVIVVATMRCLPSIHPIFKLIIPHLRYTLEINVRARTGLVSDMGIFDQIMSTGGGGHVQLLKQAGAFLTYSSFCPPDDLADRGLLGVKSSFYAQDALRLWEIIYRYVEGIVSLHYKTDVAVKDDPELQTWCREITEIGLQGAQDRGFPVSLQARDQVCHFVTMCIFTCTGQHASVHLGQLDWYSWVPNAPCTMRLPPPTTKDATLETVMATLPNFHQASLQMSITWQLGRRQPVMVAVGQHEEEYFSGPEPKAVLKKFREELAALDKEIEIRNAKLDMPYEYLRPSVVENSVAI

## N#Cc1nc(-c2cc(Cl)cc(Cl)c2OC(F)F)oc1NCCCCCO [Compound 23, 2-(3,5-Dichloro-2-(difluoromethoxy)phenyl)-5-((5-hydroxypentyl)amino)oxazole-4-carbonitrile]
  IC50: 2000 nM
  Emax: 97%

## CN(C(=O)CC1CCNCC1)c1oc(-c2cc(Cl)cc(Cl)c2Cl)nc1C#N [Compound 53]
  IC50: > 20000 nM

## Cc1cc(Cl)cc(-c2nc(C#N)c(NCCCCCO)o2)c1Cl [Compound 26, 2-(2,5-Dichloro-3-methylphenyl)-5-((5-hydroxypentyl)amino)oxazole-4-carbonitrile]
  IC50: 800 nM
  Emax: 100%

## N#Cc1nc(-c2cc(Cl)cc(Cl)c2Cl)oc1NCCOCCOc1ccnnc1 [Compound 103, 5-((2-(2-(Pyridazin-4-yloxy)ethoxy)ethyl)amino)-2-(2,3,5-trichlorophenyl)oxazole-4-carbonitrile]
  IC50: 4600 nM
  Emax: 73%

## CNc1oc(-c2cc(Cl)cc(C(F)(F)F)c2Cl)nc1C#N [Compound 8, 2-(2,5-Dichloro-3-(trifluoromethyl)phenyl)-5-(methylamino)oxazole-4-carbonitrile]
  IC50: 81 nM
  Emax: 94%

## N#Cc1nc(-c2cc(Cl)cc(Cl)c2Cl)oc1NCC#CCOCc1ccc(CCN2CCOCC2)cc1 [Compound 86]
  Emax: 100%

## COCCNc1oc(-c2cc(Cl)cc(Cl)c2C)nc1C#N [Compound 41, 2-(3,5-Dichloro-2-methylphenyl)-5-((2-methoxyethyl)amino)oxazole-4-carbonitrile]
  IC50: 170 nM
  Emax: 89%

## COCCOCCNc1oc(-c2cc(Cl)cc(C)c2Cl)nc1C#N [Compound 36, 2-(2,5-Dichloro-3-methylphenyl)-5-((2-(2-methoxyethoxy)ethyl)amino)oxazole-4-carbonitrile]
  IC50: 1100 nM
  Emax: 100%

## C=CCNc1oc(-c2cc(Cl)cc(Cl)c2Cl)nc1C#N [Compound 14, 5-(allylamino)-2-(2,3,5-trichlorophenyl)oxazole-4-carbonitrile]
  IC50: 110 nM
  Emax: 88%

## [2H]C([2H])([2H])N(C(=O)OCCCN(C)C)c1oc(-c2cc(Cl)cc(Cl)c2Cl)nc1C#N [Compound 54, hydrochloride]
  IC50: > 20000 nM

## N#Cc1nc(-c2cc(Cl)cc(Cl)c2Cl)oc1NCCOCCNCCF [Compound 93]
  Emax: 98%

## CNc1oc(-c2cc(C(F)(F)F)cc(Cl)c2Cl)nc1C#N [Compound 12, 2-(2,3-Dichloro-5-(trifluoromethyl)phenyl)-5-(methylamino)oxazole-4-carbonitrile]
  IC50: > 20000 nM
  Emax: 41%

## N#Cc1nc(-c2cc(Cl)cc(Cl)c2Cl)oc1NCCOCCN1CC(F)C1 [Compound 77, 5-((2-(2-(3-Fluoroazetidin-1-yl)ethoxy)ethyl)amino)-2-(2,3,5-trichlorophenyl)oxazole-4-carbonitrile]
  IC50: > 20000 nM

## CNc1oc(-c2c(Cl)ccc(Cl)c2Cl)nc1C#N
  IC50: > 20000 nM
  Emax: 32%

## COc1cnccc1OCCOCCNc1oc(-c2cc(Cl)cc(Cl)c2Cl)nc1C#N [Compound 99, 5-((2-(2-((3-Methoxypyridin-4-yl)oxy)ethoxy)ethyl)amino)-2-(2,3,5-trichlorophenyl)oxazole-4-carbonitrile]
  IC50: 1700 nM
  Emax: 66%

## Cc1cc(OCCOCCNc2oc(-c3cc(Cl)cc(Cl)c3Cl)nc2C#N)cc(C)n1 [Compound 83, 5-((2-(2-((2,6-Dimethylpyridin-4-yl)oxy)ethoxy)ethyl)amino)-2-(2,3,5-trichlorophenyl)oxazole-4-carbonitrile]
  IC50: 180 nM
  Emax: 61%

## N#Cc1nc(-c2cc(Cl)cc(Cl)c2Cl)oc1NCCOCCOCCOc1ccncc1 [Compound 100, 5-((2-(2-(2-(Pyridin-4-yloxy)ethoxy)ethoxy)ethyl)amino)-2-(2,3,5-trichlorophenyl)oxazole-4-carbonitrile]
  IC50: > 20000 nM

## N#Cc1nc(-c2cc(Cl)cc(Cl)c2Cl)oc1NCCOCCNCC(F)(F)F [Compound 94, 2-(2,3,5-Trichlorophenyl)-5-((2-(2-((2,2,2-trifluoroethyl)amino)ethoxy)ethyl)amino)oxazole-4-carbonitrile]
  IC50: 300 nM
  Emax: 77%

## CNc1oc(-c2cc(C)cc(Cl)c2Cl)nc1C#N [Compound 10, 2-(2,3-Dichloro-5-methylphenyl)-5-(methylamino)oxazole-4-carbonitrile]
  IC50: 380 nM
  Emax: 80%

## N#Cc1nc(-c2cc(Cl)cc(Cl)c2Cl)oc1NCCOCCN1CC(F)(F)C1 [Compound 72, 5-((2-(2-(3,3-Difluoroazetidin-1-yl)ethoxy)ethyl)amino)-2-(2,3,5-trichlorophenyl)oxazole-4-carbonitrile]
  IC50: > 20000 nM

## CN(CCOCCNc1oc(-c2cc(Cl)cc(Cl)c2Cl)nc1C#N)c1ccncc1 [Compound 90, 5-((2-(2-(Methyl(pyridin-4-yl)amino)ethoxy)ethyl)amino)-2-(2,3,5-trichlorophenyl)oxazole-4-carbonitrile]
  IC50: > 20000 nM

## Cc1c(Cl)cc(Cl)cc1-c1nc(C#N)c(NCCCCCO)o1 [Compound 24, 2-(3,5-Dichloro-2-methylphenyl)-5-((5-hydroxypentyl)amino)oxazole-4-carbonitrile]
  IC50: 320 nM
  Emax: 80%

## COCCOC(=O)Nc1oc(-c2cc(Cl)cc(Cl)c2Cl)nc1C#N [Compound 58, 2-Methoxyethyl (4-cyano-2-(2,3,5-trichlorophenyl)oxazol-5-yl)carbamate]
  IC50: > 20000 nM

## CN(C)CCCCCC(=O)N(C)c1oc(-c2cc(Cl)cc(Cl)c2Cl)nc1C#N [Compound 61, N-(4-cyano-2-(2,3,5-trichlorophenyl)oxazol-5-yl)-6-(dimethylamino)-N-methylhexanamide hydrochloride]
  IC50: > 20000 nM

## CCOCCOCCNc1oc(-c2cc(Cl)cc(Cl)c2Cl)nc1C#N [Compound 69, 5-((2-(2-Ethoxyethoxy)ethyl)amino)-2-(2,3,5-trichlorophenyl)oxazole-4-carbonitrile]
  IC50: 330 nM
  Emax: 100%

## N#Cc1nc(-c2cc(Cl)cc(Cl)c2Cl)oc1NCCOCCOc1cccnn1 [Compound 79, 5-((2-(2-(Pyridazin-3-yloxy)ethoxy)ethyl)amino)-2-(2,3,5-trichlorophenyl)oxazole-4-carbonitrile]
  IC50: > 20000 nM
  Emax: 17%

## N#Cc1nc(-c2cc(Cl)cc(Cl)c2F)oc1NCCCCCO [Compound 25]
  Emax: 38%

## N#Cc1nc(-c2cc(Cl)cc(Cl)c2Cl)oc1NCCOCCN1CCCC(F)C1 (stereo not drawn) [Compound 74, 5-((2-(2-(3-Fluoropiperidin-1-yl)ethoxy)ethyl)amino)-2-(2,3,5-trichlorophenyl)oxazole-4-carbonitrile]
  IC50: > 20000 nM

## CN(C)CCCNC(=O)Nc1oc(-c2cc(Cl)cc(Cl)c2Cl)nc1C#N [Compound 67, 1-(4-cyano-2-(2,3,5-trichlorophenyl)oxazol-5-yl)-3-(3-(dimethylamino)propyl) urea hydrochloride]
  IC50: > 20000 nM

## COCCNc1oc(-c2cc(Cl)cc(C(F)(F)F)c2Cl)nc1C#N [Compound 42, 2-(2,5-Dichloro-3-(trifluoromethyl)phenyl)-5-((2-methoxyethyl)amino)oxazole-4-carbonitrile]
  IC50: 350 nM
  Emax: 75%

## C/C=C/CNc1oc(-c2cc(Cl)cc(Cl)c2Cl)nc1C#N [Compound 15, (E)-5-(But-2-en-1-ylamino)-2-(2,3,5-trichlorophenyl)oxazole-4-carbonitrile]
  IC50: 170 nM
  Emax: 92%

## CN(c1oc(-c2cc(Cl)cc(Cl)c2Cl)nc1C#N)P(=O)(O)O [Compound 68, (4-cyano-2-(2,3,5-trichlorophenyl)oxazol-5-yl)(methyl)phosphoramidic acid]
  IC50: > 20000 nM

## N#Cc1nc(-c2cc(Cl)cc(Cl)c2OC(F)F)oc1NCCOCCO [Compound 29, 2-(3,5-Dichloro-2-(difluoromethoxy)phenyl)-5-((2-(2-hydroxyethoxy)ethyl)amino)oxazole-4-carbonitrile]
  IC50: 3000 nM
  Emax: 100%

## N#Cc1nc(-c2cc(Cl)cc(Cl)c2Cl)oc1NCCOCCOc1cccnc1 [Compound 76, 5-((2-(2-(Pyridin-3-yloxy)ethoxy)ethyl)amino)-2-(2,3,5-trichlorophenyl)oxazole-4-carbonitrile]
  IC50: 250 nM
  Emax: 74%

## COc1cc(OCCOCCNc2oc(-c3cc(Cl)cc(Cl)c3Cl)nc2C#N)ccn1 [Compound 101, 5-((2-(2-((2-Methoxypyridin-4-yl)oxy)ethoxy)ethyl)amino)-2-(2,3,5-trichlorophenyl)oxazole-4-carbonitrile]
  IC50: 72 nM
  Emax: 62%

## COCCOCCOC(=O)N(C)c1oc(-c2cc(Cl)cc(Cl)c2Cl)nc1C#N [Compound 56, 2-(2-Methoxyethoxy)ethyl (4-cyano-2-(2,3,5-trichlorophenyl)oxazol-5-yl)(methyl)carbamate]
  IC50: > 20000 nM

## COCCOCCNc1oc(-c2cc(Cl)cc(C(F)(F)F)c2Cl)nc1C#N [Compound 37, 2-(2,5-Dichloro-3-(trifluoromethyl)phenyl)-5-((2-(2-methoxyethoxy)ethyl)amino)oxazole-4-carbonitrile]
  IC50: 1800 nM
  Emax: 96%

## COCCOCCNc1oc(-c2cc(Cl)cc(Cl)c2OC(F)F)nc1C#N [Compound 33, 2-(3,5-Dichloro-2-(difluoromethoxy)phenyl)-5-((2-(2-methoxyethoxy)ethyl)amino)oxazole-4-carbonitrile]
  IC50: 650 nM
  Emax: 100%

## CNc1oc(-c2cc(C#N)cc(Cl)c2Cl)nc1C#N [Compound 13, 2-(2,3-Dichloro-5-cyanophenyl)-5-(methylamino)oxazole-4-carbonitrile]
  IC50: 1100 nM
  Emax: 100%

## CNc1oc(-c2cc(Cl)cc(Cl)c2C)nc1C#N [Compound 2, 2-(3,5-Dichloro-2-methylphenyl)-5-(methylamino)oxazole-4-carbonitrile]
  IC50: 63 nM
  Emax: 85%

## CN(C)CCCOC(=O)Nc1oc(-c2cc(Cl)cc(Cl)c2Cl)nc1C#N [Compound 57, 3-(dimethylamino) propyl (4-cyano-2-(2,3,5-trichlorophenyl)oxazol-5-yl) carbamate hydrochloride]
  IC50: > 20000 nM

Source: patent US20240336642A1 (The General Hospital Corporation, priority 2021, published 2024)
